Experimental findings from ChEMBL document CHEMBL1129845, “Digitalis-like compounds: Synthesis and biological evaluation of 3-(aminoalkylthio) derivatives” (Bioorg Med Chem Lett, 1997) are described below.

Calls of active or inactive are those of the source. The calls are words filed in the database; no cut-off is given here.

Target in one assay: not listed separately
As to the kind of experiment: Displacement of [3H]ouabain binding from Na+,K+ -ATPase receptor isolated from dog kidney. Further details: species or system Canis lupus familiaris.
For `C[C@]12CCC3C(CC[C@@H]4C[C@@H](O)CC[C@]34C)C1=CC[C@@H]2C1=CC(=O)OC1` (stereo partly drawn), the “-Log IC50” value is reported as 5.5.

With `C[C@]12CC[C@H](SCCCN)C[C@H]1CC[C@@H]1[C@@H]2CC[C@]2(C)[C@@H](C3=CC(=O)OC3)CC[C@@H]12`, the “-Log IC50” value is 5.8.

For the compound `C[C@]12CC[C@H](O)C[C@H]1CC[C@@H]1[C@@H]2CC[C@]2(C)[C@@H]([C@@H]3COC(=O)C3)CC[C@]12O`, the “-Log IC50” value is 5.6.

For the compound `C[C@]12CC[C@H](SCCCN3CCCC3)C[C@H]1CC[C@@H]1[C@@H]2CC[C@]2(C)[C@@H](C3=CC(=O)OC3)CC[C@]12O`, the “-Log IC50” value is 6.8.

As to `C[C@]12CCC3C(CC[C@@H]4C[C@@H](SCCCN)CC[C@]34C)C1=CC[C@@H]2C1=CC(=O)OC1` (stereo partly drawn), the “-Log IC50” value was 5.8.

With `C[C@]12CC[C@H](SCC[N+](C)(C)C)C[C@H]1CC[C@@H]1[C@@H]2CC[C@]2(C)[C@@H](C3=CC(=O)OC3)CC[C@]12O`, the “-Log IC50” value was found to be 7.

`C[C@]12CC[C@H](SCCCN)C[C@H]1CC[C@@H]1[C@@H]2CC[C@]2(C)[C@@H](C3=CC(=O)OC3)CC[C@]12O`: the “-Log IC50” value is 7.1.

Consider `C[C@]12CC[C@H](SCCN)C[C@H]1CC[C@@H]1[C@@H]2CC[C@]2(C)[C@@H](C3=CC(=O)OC3)CC[C@]12O`, for which the “-Log IC50” value stood at 7.5.

In the case of `C[C@]12CC[C@H](S)C[C@H]1CC[C@@H]1[C@@H]2CC[C@]2(C)[C@@H](C3=CC(=O)OC3)C[C@H]3O[C@]132`, the “-Log IC50” value was found to be 5.6.

As for `C[C@]12CC[C@H](SCCCN)C[C@H]1CC[C@@H]1[C@@H]2CC[C@]2(C)[C@@H]([C@H]3COC(=O)C3)CC[C@]12O`, the “-Log IC50” value stood at 6.5.

On to `C[C@]12CC[C@H](O)C[C@H]1CC[C@@H]1[C@@H]2CC[C@]2(C)[C@@H](C3=CC(=O)OC3)C[C@H]3O[C@]132`, for which the “-Log IC50” value was found to be 6.6.

Turning to `C[C@]12CC[C@H](S)C[C@H]1CC[C@@H]1[C@@H]2CC[C@]2(C)[C@@H]([C@@H]3COC(=O)C3)CC[C@]12O`, the “-Log IC50” value is reported as 5.

For `C[C@]12CC[C@H](SCCN3CCCC3)C[C@H]1CC[C@@H]1[C@@H]2CC[C@]2(C)[C@@H](C3=CC(=O)OC3)CC[C@]12O`, the “-Log IC50” value amounted to 6.7.

As for `C[C@]12CC[C@H](SCCCN)C[C@H]1CC[C@@H]1[C@@H]2CC[C@]2(C)[C@@H]([C@@H]3COC(=O)C3)CC[C@]12O`, the “-Log IC50” value is 6.5.

With `C[C@]12CC[C@H](S)C[C@H]1CC[C@@H]1[C@@H]2CC[C@]2(C)[C@@H]([C@H]3COC(=O)C3)CC[C@]12O`, the “-Log IC50” value is 5.5.

`CN(C)CCCS[C@H]1CC[C@@]2(C)[C@H](CC[C@@H]3[C@@H]2CC[C@]2(C)[C@@H](C4=CC(=O)OC4)CC[C@]32O)C1`: the “-Log IC50” value is given as 7.

With `C[C@]12CC[C@H](O)C[C@H]1CC[C@@H]1[C@@H]2CC[C@]2(C)[C@@H](C3=CC(=O)OC3)CC[C@@H]12`, the “-Log IC50” value is 5.2.

As for `C[C@]12CC[C@H](O)C[C@H]1CC[C@@H]1[C@@H]2CC[C@]2(C)[C@@H]([C@H]3COC(=O)C3)CC[C@]12O`, the “-Log IC50” value is listed as 5.8.

Regarding `C[C@]12CC[C@H](S)C[C@H]1CC[C@@H]1[C@@H]2CC[C@]2(C)[C@@H](C3=CC(=O)OC3)CC[C@]12O`, the “-Log IC50” value is on record as 6.

`C[C@]12CC[C@H](O)C[C@H]1CC[C@@H]1[C@@H]2CC[C@]2(C)[C@@H](C3=CC(=O)OC3)CC[C@]12O` [DIGITOXIGENIN]: the “-Log IC50” value stood at 7.2.

For the compound `C[C@]12CC[C@H](SCCCN3CCNCC3)C[C@H]1CC[C@@H]1[C@@H]2CC[C@]2(C)[C@@H](C3=CC(=O)OC3)CC[C@]12O`, the “-Log IC50” value was found to be 6.5.

For the compound `C[C@]12CC[C@H](SCCCN)C[C@H]1CC[C@@H]1[C@@H]2CC[C@]2(C)[C@@H](C3=CC(=O)OC3)C[C@H]3O[C@]132`, the “-Log IC50” value was 6.6.

The species named for the next assay is Canis lupus familiaris. Put plainly: Displacement of [3H]ouabain binding to Na+,K+ -ATPase receptor isolated from dog kidney; NA = <50% displacement at 10e-5 M. On the technique in general: Loss of bound radioactivity is the signal in a displacement assay; it reports binding, not function.
With `C[C@]12CC[C@H](S)C[C@H]1CC[C@@H]1[C@@H]2CC[C@]2(C)[C@@H](C3=CC(=O)OC3)CC[C@@H]12`, the “-Log IC50” value is “inactive”.
